{"source": "patent US4925835A", "about": "“Aziridinyl putrescine containing compositions and their uses in treating prostate cancer” (priority 1987, dated 1990)", "key": {"[1]": {"tested_on": "PC-3 human prostatic carcinoma cell line", "test": "cells", "assay_type": "cell-based", "conditions": "for Cell number as a percentage of the control mean cell number / Cell no.: 1 μM AZP; for Cell no.: mean ± SE; for activity at 1 µM / EC50: Homo sapiens, Prostatic carcinoma cell; for activity at 1 µM: 192 h", "procedure": "FIG. 3. Effect of AZP on the growth of PC-3 cells with or without DFMO pretreatment. PC-3 cells (3×10^4) were plated in 60-mm^2 Petri dish in RPMI 1640-10% FCS and allowed to attach overnight. The following day the medium was aspirated and replaced with RPMI 1640, 10% FCS, 100 μM aminoguanidine with or without 1 mm DFMO. Forty-eight h later the medium was aspirated, the dishes were rinsed once with HBSS, and the cells were incubated with RPMI 1640-10% FCS-100 μM aminoguanidine with or without 25 μM AZP for 1 h. Following the 1-h incubation the medium was aspirated, the plates were rinsed twice with HBSS, and the incubation was continued with fresh RPMI 1640-10% FCS-100 μM aminoguanidine. At the indicated times following initial plating the cells were lifted from the plate by trypsinization and were examined for their ability to exclude trypan blue. Total cell counts were obtained with the aid of a hemocytometer, and the completeness of the removal of the cells from the dish was verified by the examination of each dish with the inverted microscope. , control; Δ, DFMO; .circle., AZP; .quadrature., DFMO+AZP. Points, means; bars, SE.\nFIG. 4. Dose-effect relationship of AZP on the growth on PC-3 prostatic cancer cells. PC-3 cells (3×10^4) were plated in RPMI 1640-10% FCS in 60-mm^2 Petri dishes and allowed to attach overnight. The following day the medium was aspirated and replaced with RPMI 1640-10% FCS-100 μM aminoguanidine with or without 1 mm DFMO. Forty-eight h later the medium was aspirated, and the cells were rinsed once with HBSS and replaced with RPMI 1640-10% FCS-100 μM aminoguanidine with or without the indicated μM concentrations of AZP. After a 1-h incubation the medium was aspirated, the cells were rinsed twice with HBSS, and the incubation was continued with fresh RPMI 1640-10% FCS-100 μM aminoguanidine. Eight days following plating the cells were lifted from the plates by trypsinization and were counted with the aid of a hemocytometer and expressed as a percentage of control (100% without DFMO, 212±31×10^4; 100% with DFMO pretreatment, 219±25× 10^4 cells, respectively). , DFMO pretreated; .circle., without DFMO.\nAssays of cell growth were performed by plating 3×10^4 PC-3 cells in RPMI 1640 medium with 10% FCS and allowing them to attach overnight. The following morning the medium was replaced with incubation medium consisting of RPMI 1640, 10% FCS, 100 μM aminoguanidine, 100 units/ml of penicillin, 100 μg/ml of streptomycin, and 2 mM glutamine, with or without 1 mM difluoromethylornithine. Two days later the medium was aspirated and replaced with or without 1-(4-aminobutyl) aziridine at the designated concentration usually for 1 h or for the designated length of time. Following the 1-h incubation, the medium of all groups was aspirated and the dishes were rinsed with HBSS and replaced with fresh incubation medium. Either daily or 8 days following plating, the Petri dishes were rinsed with HBSS and the cells were lifted from the plate by trypsinization. The dishes were examined for completeness of cell removal by examination with an inverted microscope. The cells were counted with a Zeiss microscope using a hemocytometer. Tumor cell population doubling time was determined by ploting the natural logarithm (ln) of the number of cells versus the days following plating. The slope of this line was determined using the Memorial Sloan-Kettering Cancer Center Clin computer system statistical analysis package. Doubling time (DT) was determined as ln 2/slope=DT. Statistical differences in cell number between groups were determined by Student's t statistic with the aid of the Memorial Sloan-Kettering Cancer Center Clin computer using the statistics program.\n^a Thirty thousand PC3 cells were plated in 60mm^2 Petri dishes i\nRPMI 164010% FCS. The next day the medium was aspirated and replaced with\nRPMI 164010% FCS medium with 100 μM aminoguanidine with or without 1 m\nDFMO. Fortyeight h later the medium was aspirated. […]"}, "PC-3 cells": {"tested_on": "PC-3 cells", "test": "Polyamine assays: intracellular polyamine levels by HPLC", "assay_type": "cell-based, human", "procedure": "One h later the medium was aspirated and the cells were rinsed with cold HBSS. Three plates were treated with dilute trypsin to release the cells from the plate and provide a single cell suspension. The viability of the cells and the number of cells per plate were determined by trypan blue exclusion and counting with the aid of a hemocytometer. […] The other three plates were extracted with 0.4N perchloric acid and the polyamines were measured by fluorescence following postcolumn derivatization with o-phthalaldehyde following separation by the reverse phase ion-pair high performance liquid chromatography procedure of Wagner et al., J. Chomatogr., 227: 349-368, 1982.\nIn Table 2 are listed the values for the triplicate assays of the concentrations of polyamine observed in nontreated cells, cells treated with 1-(4-aminobutyl) aziridine for 1 h, cells pretreated for 48 h with 1 mM difluoromethylornithine and then incubated in drug free medium for 1 h, or cells pretreated for 48 h with difluoromethylornithine, rinsed free of difluoromethylornithine, and then incubated with 25 μM 1-(4-aminobutyl)aziridine for 1 h. All groups had cell viabilities greater than 95% and cell numbers were 4.9±0.6 (SE), 4.9±0.7, 4.8±0.4, and 4.6±0.4×10^6 cells for the control, 1-(4-aminobutyl) aziridine, difluoromethylornithine, and difluoromethylornithine+1-(4-aminobutyl) aziridine groups, respectively. The apparent amount of 1-(4-aminobutyl) aziridine in the difluoromethylornithine-treated cells was 3.7 times that of the 1-(4-aminobutyl) aziridine-only-treated cells. No N^8 -acetylspermidine, acetylputrescine, or cadaverine was detected in any group. A peak was detected at a wavelength of 254 nm in the difluoromethylornithine treatment groups that corresponds to the retention time of decarboxylated S-adenosylmethionine.\n^a PC-3 cells were incubated with or without 1 mM DFMO for 48 h. Cell\nwere then rinsed free of DFMO and incubated for 1 h with 25 μM AZP. Th\ncells were washed free of AZP by three rinses of HBSS. With one set of\ntriplicate plates, the cells were resuspended and counted by hemocytomete\nand viability was determined by trypan dye exclusion (viability > 95%).\nAnother set triplicate plates was extracted with icecold perchloric acid\nand filtered and the polyamine concentrations were determined by HPLC.\n^b Mean ± SE for a triplicate assay. Histamine is included as a […]"}, "[2]": {"conditions": "2 h incubation, DFMO pretreated, day 8"}, "[3]": {"conditions": "4 h incubation, DFMO pretreated, day 8"}, "[4]": {"conditions": "PC-3, ±1 mM DFMO 48 h, then ±25 μM AZP 1 h, mean ± SE"}}, "note": "Where two headings read alike, the source gives them in different places.", "data": [{"smiles": "NCCCCN1CC1", "note": "[AZP, 1-(4-aminobutyl) aziridine]", "values": [{"measurement": "Cell number as a percentage of the control mean cell number", "setting": "[1]; 1 h incubation, DFMO pretreated, day 8", "result": 73, "unit": "%"}, {"measurement": "Cell no.", "setting": "[1]; 1 h incubation, no DFMO (Control), day 8", "result": "236 ± 8 × 10^-4"}, {"measurement": "Cell number as a percentage of the control mean cell number", "setting": "[1]; [2]", "result": 52, "unit": "%"}, {"measurement": "Cell no.", "setting": "[1]; [2]", "result": "114 ± 10 × 10^-4"}, {"measurement": "Cell no.", "setting": "[1]; 2 h incubation, no DFMO (Control), day 8", "result": "202 ± 11 × 10^-4"}, {"measurement": "Cell number as a percentage of the control mean cell number", "setting": "[1]; [3]", "result": 32, "unit": "%"}, {"measurement": "Cell no.", "setting": "[1]; [3]", "result": "70 ± 8 × 10^-4"}, {"measurement": "Cell number as a percentage of the control mean cell number", "setting": "[1]; 8 h incubation, DFMO pretreated, day 8", "result": "~9", "unit": "%"}, {"measurement": "Cell no.", "setting": "[1]; 8 h incubation, no DFMO (Control), day 8", "result": "122 ± 16 × 10^-4"}, {"measurement": "Cell number as a percentage of the control mean cell number", "setting": "[1]; 24 h incubation, DFMO pretreated, day 8", "result": 0.9, "unit": "%"}, {"measurement": "Cell no.", "setting": "[1]; 24 h incubation, no DFMO (Control), day 8", "result": "30 ± 11 × 10^-4"}, {"measurement": "Cell no. as a percentage of control", "setting": "[1]; DFMO-pretreated PC-3 (1 mM, 48 h), single agent 1 h (Put 100 μM or AZP 10 μM), day 8", "result": 9, "unit": "%"}, {"measurement": "activity at 1 µM", "setting": "[1]; read-out: Cell number as a percentage of the control mean cell number, 1 μM AZP, 1 h incubation, no DFMO (Control), day 8", "result": 98, "unit": "%"}, {"measurement": "activity at 1 µM", "setting": "[1]; read-out: Cell number as a percentage of the control mean cell number, 1 μM AZP, 2 h incubation, no DFMO (Control), day 8", "result": 84, "unit": "%"}, {"measurement": "activity at 1 µM", "setting": "[1]; read-out: Cell number as a percentage of the control mean cell number, 1 μM AZP, 4 h incubation, no DFMO (Control), day 8", "result": 66, "unit": "%"}, {"measurement": "activity at 1 µM", "setting": "[1]; read-out: Cell number as a percentage of the control mean cell number, 1 μM AZP, 8 h incubation, no DFMO (Control), day 8", "result": 51, "unit": "%"}, {"measurement": "activity at 1 µM", "setting": "[1]; read-out: Cell number as a percentage of the control mean cell number, 1 μM AZP, 24 h incubation, no DFMO (Control), day 8", "result": "~12", "unit": "%"}, {"measurement": "EC50", "setting": "[1]; read-out: 50% effective dose (cell growth), PC-3, 1 h exposure, counted 8 days after plating, 1 mM DFMO pretreatment 48 h", "result": 2.1, "unit": "µM"}, {"measurement": "EC50", "setting": "[1]; read-out: 50% effective dose (cell growth), PC-3, 1 h exposure, counted 8 days after plating, without DFMO", "result": 18, "unit": "µM"}, {"measurement": "Cells per dish on day 8 following plating", "setting": "[1]; PC-3, 3×10^4 plated, ±1 mM DFMO 48 h, ±25 μM AZP 1 h, mean±SD of triplicates", "result": "123±10 ×10^4 cells per dish"}, {"measurement": "Doubling time", "setting": "[1]; PC-3, 25 μM AZP 1 h or 1 mM DFMO 48 h, mean±SE", "result": "1.53 ± 0.06", "unit": "days"}, {"measurement": "Growth-inhibitory activity toward PC-3 cells (in words)", "setting": "[1]; brief 1-h exposure", "result": "definitely growth inhibitory"}, {"measurement": "Apparent amount of AZP in DFMO-treated cells relative to AZP-only-treated cells", "setting": "PC-3 cells; 25 μM AZP 1 h, 1 mM DFMO 48 h pretreatment", "result": 3.7, "unit": "times"}, {"measurement": "Polyamine levels: AZP", "setting": "PC-3 cells; PC-3, ±1 mM DFMO 48 h, then 25 μM AZP 1 h, mean ± SE", "result": "115 ± 32", "unit": "pmol/10^6"}, {"measurement": "Cell numbers at end of treatment", "setting": "PC-3 cells; PC-3, ±1 mM DFMO 48 h, then ±25 μM AZP 1 h, SE", "result": "4.9±0.7 ×10^6 cells"}, {"measurement": "Polyamine levels: Hist (histamine, nonpolyamine control)", "setting": "PC-3 cells; [4]", "result": "86 ± 25", "unit": "pmol/10^6"}, {"measurement": "Polyamine levels: NaSpm (N-acetylspermine)", "setting": "PC-3 cells; [4]", "result": "125 ± 28", "unit": "pmol/10^6"}, {"measurement": "Polyamine levels: PUT (putrescine)", "setting": "PC-3 cells; [4]", "result": "2520 ± 170", "unit": "pmol/10^6"}, {"measurement": "Polyamine levels: Spd (spermidine)", "setting": "PC-3 cells; [4]", "result": "2884 ± 100", "unit": "pmol/10^6"}, {"measurement": "Polyamine levels: Spm (spermine)", "setting": "PC-3 cells; [4]", "result": "3604 ± 323", "unit": "pmol/10^6"}]}]}
